Values after ≈ are worked out from the molar mass of the structure shown.
Assays:
[1] = tested on: S. aureus SA-1199 (wild type); experiment: MIC determination against wild-type SA-1199; assay type: cell-based; details: Staphylococcus aureus, compound alone
Text: (§1) This finding aligns with their mechanism of action, which involves the inhibition of NorA, which is only basally expressed in the wild‐type SA‐1199 strain.

[2] = tested on: S. aureus SA-K2378 (norA ++); experiment: Checkerboard assay EPI/CPX against SA-K2378; assay type: cell-based, Staphylococcus aureus
Protocol: Conversely, interesting results were obtained against SA‐K2378, which overexpresses the norA gene (Table 2). […] This corroborates the hypothesis that their activity is strictly related to NorA EP inhibition.
Checkerboard assays were carried out using SA‐K1902 and SA‐K2378 strains according to standard procedures.

[3] = tested on: Staphylococcus aureus SA-1199B; experiment: MIC determination (broth microdilution) against SA-1199B; assay type: cell-based; details: SA1199B
Text: In this study, the S. aureus strains SA‐1199B (overexpressing norA) and its isogenic parent SA‐1199 (wild type), the pair SA‐K1902 (norA‐depleted) and SA‐K2378 (complemented with a pCU1 plasmid harboring the norA promoting and coding region from SA‐1199B), were used to test EPI activity as described in a previous study. Furthermore, the S. aureus ATCC 29213 was used as the reference strain in MIC determination experiments.

[4] = tested on: S. aureus SA-1199 (wild type); experiment: Synergistic assay with CPX against wild-type SA-1199; assay type: cell-based, Staphylococcus aureus; details: EPI at 3.13 µg/mL with CPX
Text: as §1

| Compound | MIC [1] [µg/mL] | CPX MIC ([2]; EPI at 0.2 µg/mL) [µg/mL] | N° CPX MIC reduction ([2]; EPI at 0.2 µg/mL) | CPX MIC ([2]; EPI at 0.4 µg/mL) [µg/mL] | N° CPX MIC reduction ([2]; EPI at 0.4 µg/mL) | CPX MIC ([2]; EPI at 0.8 µg/mL) [µg/mL] | N° CPX MIC reduction ([2]; EPI at 0.8 µg/mL) | CPX MIC ([2]; EPI at 1.6 µg/mL) [µg/mL] | N° CPX MIC reduction ([2]; EPI at 1.6 µg/mL) | CPX MIC ([2]; EPI at 3.13 µg/mL) [µg/mL] | N° CPX MIC reduction ([2]; EPI at 3.13 µg/mL) | CPX MIC ([2]; EPI at 6.25 µg/mL) [µg/mL] | N° CPX MIC reduction ([2]; EPI at 6.25 µg/mL) | MIC [3] [µg/mL] | synergistic effect with CPX [4] |
| --- | --- | --- | --- | --- | --- | --- | --- | --- | --- | --- | --- | --- | --- | --- | --- |
| O=S1(=O)Nc2c(-c3ccc(Cl)cc3)nn(-c3ccccc3)c2-c2ccccc21 [Compound 3] | > 50 | 0.6 | 2 | 0.6 | 2 | 0.3 | 4 | 0.16 | 8 | 0.16 | 8 | 0.08 | 16 | 25 (≈ 61.3 µM) | did not show any synergistic effect |
| CN1c2c(-c3ccc(Cl)cc3)n[nH]c2-c2ccccc2S1(=O)=O [Compound 10, 3‐(4‐Chlorophenyl)‐4‐methyl‐1,4‐dihydropyrazolo[4,3‐c][1,2]benzothiazine 5,5‐dioxide] | > 50 | 0.6 | 2 | 0.6 | 2 | 0.3 | 4 | 0.16 | 8 | 0.08 | 16 | – | – | > 50 | did not show any synergistic effect |

— PMC12089509, “NorA Efflux Pump Inhibitors: Expanding SAR Knowledge of Pyrazolo[4,3‐c][1,2]benzothiazine 5,5‐Dioxide Derivatives” (Archiv Der Pharmazie, 2025)
